Values quoted from earlier work, collected in patent US20040185009A1, “Composition and device for treating periodontal diseases” (DEXCEL PHARMA TECHNOLOGIES LTD., priority 2003, published 2004).

How the values were obtained:
periodontal disease [1] = conditions: 24 months, FBP-treated patient group
periodontal disease [2] = conditions: 100 mg/day for two months

Compound: CC(C(=O)O)c1ccc(-c2ccccc2)c(F)c1 (centres unmarked) [FBP, Flurbiprofen]
- Effect on bone loss (periodontal disease [1]): reduction in bone loss
- Effect on bone metabolism (standardized radiography, radiopharmaceutical uptake) (periodontal disease [2]): increased bone metabolism
